Data on two compounds can be found in US3939204A, “Radioactive functional diagnostic agents” (priority 1972, dated 1976).

Series [1] in a line: distribution in the body as function of time after intravenous administration, measured by scinticamera. The format is in vivo, human. Conditions: for Time of Appearance in Gallbladder / Time of Appearance in Intestine / Blood T 1/2 / Liver T 1/2 / Maximum Liver Accumulation: approximately 0.25 millicurie per injection; for Blood T 1/2: elimination from blood into liver cells; for Liver T 1/2: elimination from liver cells into bile ducts and gallbladder; for Maximum Liver Accumulation: time of maximum accumulation.
Experimental: These compounds were tested intravenously on humans. The total quantity of radioactivity per injection of the respectively injected aqueous test solution was approximately 0.25 millicurie in each instance.
The distribution in the body as function of time after administration was measured by scinticamera in the usual manner.

For series [2] the following is noted: background statement in words; cited from earlier work.

Structures can show the parent of a compound that is named as a salt.

For `O=C(COCC(=O)Nc1c(I)cc(I)c(C(=O)O)c1I)Nc1c(I)cc(I)c(C(=O)O)c1I` [A, diglycolic acid bis(3-carboxy-2,4,6-triiodoanilide)-131-iodine N-methylglucamine salt], in series [1] (humans, intravenous), the “Time of Appearance in Gallbladder” value is 25.5 min, the “Time of Appearance in Intestine” value was 14.6 min, the “Blood T 1/2” value stood at 3.22 min and the “Liver T 1/2” value came to 3.19 min. For the same compound, the “Maximum Liver Accumulation” value in series [1] (humans, intravenous) turned out to be 16.5 min. Besides, in series [1] (humans, intravenous, in words), the “enterohepatic cycle (reabsorption from the intestine into the bloodstream)” value is given as “absence of an enterohepatic cycle”; the “liver passage (from T 1/2 values)” value is given as “markedly faster liver passage”; the “times of appearance in the intestine and gallbladder, compared with B and C” value is “markedly shorter than in the comparison substances B and C”. In addition, in series [1] (patients having a healthy liver), the concomitant gallbladder representation result is listed as “a concomitant gallbladder representation is obtained”.

`O=C1OC2(c3cc(I)c(O)c(I)c3Oc3c2cc(I)c(O)c3I)c2c(Cl)c(Cl)c(Cl)c(Cl)c21` [B, tetrachlorotetraiodofluorescein-131-iodine sodium salt]: in series [1] (humans, intravenous), the “Time of Appearance in Gallbladder” value is 45 min, the “Time of Appearance in Intestine” value was determined as 45 min, the “Blood T 1/2” value worked out at 8.14 min and the “Liver T 1/2” value was 10.24 min. For the same compound, in series [1] (humans, intravenous), the “Maximum Liver Accumulation” value worked out at 30 min. In series [2], the “elimination from the liver” value is listed as “after a longer period of time” and the “maximum accumulation in the liver” value is given as “after a longer period of time”.
